# Measured values published in ChEMBL document CHEMBL1155684, “Preparation, stereochemistry, and cytotoxic activity of the melampolides from Mikania minima” (J Nat Prod, 2000).
# How the values were obtained:
# Assay type in all cases: functional, cell-based
# P388 = assay: Cytotoxicity against mouse P388 cells
# A549 = assay: Cytotoxicity against human A549 cells
# HT-29 = assay: Cytotoxicity against human HT29 cells
smiles,measurement,setting,value
C=C1C(=O)O[C@@H]2/C=C(\COC(C)=O)CC/C=C(/C=O)C[C@H](OC(C)=O)[C@@H]12,IC50,P388,1400 nM
same,IC50,A549,2800 nM
same,IC50,HT-29,2800 nM
C=C1C(=O)O[C@@H]2/C=C(\COC(C)=O)CC/C=C(/CO)C[C@H](OC(C)=O)[C@@H]12,IC50,P388,2700 nM
same,IC50,A549,5500 nM
